{
  "source": "patent US8092842B2",
  "about": "“Extraction of phytochemicals by enzymatic hydrolysis” (Pos Pilot Plant Corporation, priority 2007, dated 2012)",
  "test_system": "lymphocytes isolated from Balb/C mice",
  "assay": "lymphocyte cell proliferation assay",
  "type": "cell-based",
  "conditions": "LPS at 1 μg/ml (table prints concentration n/a)",
  "experimental": "The effects of the ginseng extracts produced during these studies, on cell proliferation of lymphocytes isolated from Balb/C mice were assessed by the methods disclosed in Chapters 2 and 3 in Current Protocols in Immunology, (Coligan et al., Eds, 2007, John Wiley & Sons). A first positive control was lipopolysaccharide (LPS) at a concentration of 1 μg/ml. LPS (Prod. L4641) was supplied by Sigma-Aldrich Canada (Oakville, ON, Canada). A commercially available poly-furanosyl-pyranosyl-saccharide-rich ginseng extract, Cold-FX® (Cold-FX is a registered trademark of CV Technologies Inc., Edmonton, Alberta, Canada), was obtained from a local supermarket, and was used for comparison as a second positive control. The effects of the positive controls and the ginseng extracts produced by the three studies described herein on cell proliferation are shown in Table 1. […]\nThe bioactivity of the dried ginseng extract produced with the pilot scale process disclosed herein was assessed using the assay, related methods, positive and negative controls as described in Example 1.\nThe biological activity of the dried ginseng extracts produced from alcohol-washed dried ginseng meal during the first study of this example was assessed using the assay and methods described in Example 1, and the results compared to the positive control #2 described in Example 1.",
  "data": [
    {"substance": "lipopolysaccharide [Positive control #1 (LPS)]", "values": [
      {"measurement": "Optical Density (lymphocyte cell proliferation)", "value": 0.361}
    ]}
  ]
}
